From ChEMBL document CHEMBL5653631, “A Potent and Selective ULK1 Inhibitor Suppresses Autophagy and Sensitizes Cancer Cells to Nutrient Stress” (iScience, 2018)
One block for each compound: values may come before it.

Experiments:
[1] = target: Homeodomain-interacting protein kinase 1 (Homo sapiens) (UniProt Q86Z02); test: Inhibition of human recombinant HIPK1 at 500 nM in presence of ATP by radiometric assay relative to control
[2] = target: T1, Ephrin type-B receptor 1 (Homo sapiens) (UniProt P54762); test: Inhibition of human recombinant EphB1 at 500 nM related to control ULK1
T1 sequence (whole entry): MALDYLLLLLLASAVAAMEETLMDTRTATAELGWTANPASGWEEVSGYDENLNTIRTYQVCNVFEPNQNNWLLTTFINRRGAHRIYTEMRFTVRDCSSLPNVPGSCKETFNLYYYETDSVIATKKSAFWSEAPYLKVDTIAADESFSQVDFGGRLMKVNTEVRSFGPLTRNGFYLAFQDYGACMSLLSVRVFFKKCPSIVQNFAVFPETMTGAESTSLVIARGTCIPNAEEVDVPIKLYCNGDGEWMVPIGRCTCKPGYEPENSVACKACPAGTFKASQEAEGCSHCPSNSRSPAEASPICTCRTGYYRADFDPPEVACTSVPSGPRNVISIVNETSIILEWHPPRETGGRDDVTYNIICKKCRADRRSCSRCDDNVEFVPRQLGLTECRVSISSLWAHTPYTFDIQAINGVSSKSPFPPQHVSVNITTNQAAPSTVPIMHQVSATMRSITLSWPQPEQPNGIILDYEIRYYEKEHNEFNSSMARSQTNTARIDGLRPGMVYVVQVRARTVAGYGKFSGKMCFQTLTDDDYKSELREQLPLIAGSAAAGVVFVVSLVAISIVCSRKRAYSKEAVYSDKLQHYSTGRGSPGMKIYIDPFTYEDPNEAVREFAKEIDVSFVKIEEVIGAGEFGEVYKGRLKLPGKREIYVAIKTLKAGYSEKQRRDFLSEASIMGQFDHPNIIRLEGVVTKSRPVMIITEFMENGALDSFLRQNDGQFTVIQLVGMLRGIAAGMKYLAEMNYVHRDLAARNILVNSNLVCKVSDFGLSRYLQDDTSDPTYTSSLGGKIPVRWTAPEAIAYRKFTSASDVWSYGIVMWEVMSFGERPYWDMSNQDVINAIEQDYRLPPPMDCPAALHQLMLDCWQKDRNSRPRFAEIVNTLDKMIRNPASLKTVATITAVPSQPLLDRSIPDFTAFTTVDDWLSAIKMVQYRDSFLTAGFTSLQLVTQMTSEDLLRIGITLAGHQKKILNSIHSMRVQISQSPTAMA

[3] = target: Protein kinase C gamma type (Homo sapiens) (UniProt P05129); test: Inhibition of human recombinant PKCg at 500 nM related to control ULK1
[4] = target: Calcium/calmodulin-dependent protein kinase type II subunit delta (Homo sapiens) (UniProt Q13557); test: Inhibition of human recombinant CaMK2d at 15 nM in presence of ATP by radiometric assay relative to control
[5] = target: Death-associated protein kinase 2 (Homo sapiens) (UniProt Q9UIK4); test: Inhibition of human recombinant DAPK2 at 15 nM in presence of ATP by radiometric assay relative to control
[6] = target: Angiopoietin-1 receptor (Homo sapiens) (UniProt Q02763); test: Inhibition of human recombinant Tie2 at 15 nM in presence of ATP by radiometric assay relative to control
[7] = target: Calcium/calmodulin-dependent protein kinase type 1 (Homo sapiens) (UniProt Q14012); test: Inhibition of human recombinant CaMK1a at 15 nM related to control ULK1
[8] = target: Receptor-interacting serine/threonine-protein kinase 2 (Homo sapiens) (UniProt O43353); test: Inhibition of human recombinant RIPK2 at 15 nM related to control ULK1
[9] = target: T2, Serine/threonine-protein kinase 17B (Homo sapiens) (UniProt O94768); test: Inhibition of human recombinant DRAK2 at 40 nM in presence of ATP by radiometric assay relative to control
T2 sequence (whole entry): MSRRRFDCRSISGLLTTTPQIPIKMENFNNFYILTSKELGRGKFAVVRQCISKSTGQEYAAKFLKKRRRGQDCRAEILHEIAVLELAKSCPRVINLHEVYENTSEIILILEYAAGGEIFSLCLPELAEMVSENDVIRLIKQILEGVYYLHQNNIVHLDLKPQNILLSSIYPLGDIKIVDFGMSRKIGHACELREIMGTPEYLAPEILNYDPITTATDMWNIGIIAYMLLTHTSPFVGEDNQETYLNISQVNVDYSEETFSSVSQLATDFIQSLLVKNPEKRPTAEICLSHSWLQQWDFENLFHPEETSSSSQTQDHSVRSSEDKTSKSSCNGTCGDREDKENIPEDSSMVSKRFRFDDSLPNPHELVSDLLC

[10] = target: T3, Homeodomain-interacting protein kinase 4 (Homo sapiens) (UniProt Q8NE63); test: Inhibition of human recombinant HIPK4 at 40 nM in presence of ATP by radiometric assay relative to control
T3 sequence (whole entry): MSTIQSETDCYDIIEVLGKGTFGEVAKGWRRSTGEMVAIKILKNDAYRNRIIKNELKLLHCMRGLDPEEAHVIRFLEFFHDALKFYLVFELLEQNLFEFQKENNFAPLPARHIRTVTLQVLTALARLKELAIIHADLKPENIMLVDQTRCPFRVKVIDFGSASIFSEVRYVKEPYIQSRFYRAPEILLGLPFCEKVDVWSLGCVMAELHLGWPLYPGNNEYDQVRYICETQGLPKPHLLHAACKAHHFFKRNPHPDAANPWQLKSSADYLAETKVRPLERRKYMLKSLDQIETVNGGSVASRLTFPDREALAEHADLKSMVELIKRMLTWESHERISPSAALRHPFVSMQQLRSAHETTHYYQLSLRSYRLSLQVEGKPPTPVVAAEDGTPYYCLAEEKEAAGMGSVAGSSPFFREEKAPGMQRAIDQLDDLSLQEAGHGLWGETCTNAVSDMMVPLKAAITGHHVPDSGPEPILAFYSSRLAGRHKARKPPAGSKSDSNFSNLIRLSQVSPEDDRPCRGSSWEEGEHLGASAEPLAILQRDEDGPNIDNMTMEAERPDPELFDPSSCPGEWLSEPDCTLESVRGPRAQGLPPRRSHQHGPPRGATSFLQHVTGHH

[11] = target: Serine/threonine-protein kinase MRCK beta (Homo sapiens) (UniProt Q9Y5S2); test: Inhibition of human recombinant MRCKb at 40 nM in presence of ATP by radiometric assay relative to control
[12] = target: Protein-tyrosine kinase 2-beta (Homo sapiens) (UniProt Q14289); test: Inhibition of human recombinant PYK2 at 40 nM in presence of ATP by radiometric assay relative to control
[13] = target: NT-3 growth factor receptor (Homo sapiens) (UniProt Q16288); test: Inhibition of human recombinant TRKC at 40 nM in presence of ATP by radiometric assay relative to control
[14] = target: SRSF protein kinase 1 (Homo sapiens) (UniProt Q96SB4); test: Inhibition of human recombinant SRPK1 at 40 nM related to control ULK1
Sequence of SRSF protein kinase 1 (Homo sapiens) (Q96SB4 whole entry): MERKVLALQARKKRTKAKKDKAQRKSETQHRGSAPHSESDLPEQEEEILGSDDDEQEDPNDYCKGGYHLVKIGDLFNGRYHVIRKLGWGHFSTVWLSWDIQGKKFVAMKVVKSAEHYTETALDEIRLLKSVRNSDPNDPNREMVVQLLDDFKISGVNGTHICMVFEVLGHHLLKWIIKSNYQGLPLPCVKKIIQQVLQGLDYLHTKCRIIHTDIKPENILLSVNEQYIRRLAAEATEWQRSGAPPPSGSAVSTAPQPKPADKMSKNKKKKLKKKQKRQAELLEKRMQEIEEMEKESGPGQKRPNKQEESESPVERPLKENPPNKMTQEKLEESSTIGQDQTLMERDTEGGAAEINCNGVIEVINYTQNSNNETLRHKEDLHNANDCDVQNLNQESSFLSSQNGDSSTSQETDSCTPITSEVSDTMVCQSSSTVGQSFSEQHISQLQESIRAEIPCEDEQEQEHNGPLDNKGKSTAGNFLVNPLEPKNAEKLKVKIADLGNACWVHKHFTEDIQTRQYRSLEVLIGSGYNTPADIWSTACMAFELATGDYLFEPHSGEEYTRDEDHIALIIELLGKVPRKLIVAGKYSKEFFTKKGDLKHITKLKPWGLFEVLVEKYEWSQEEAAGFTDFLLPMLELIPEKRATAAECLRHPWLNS

Sequence of Protein-tyrosine kinase 2-beta (Homo sapiens) (Q14289 whole entry, looked up): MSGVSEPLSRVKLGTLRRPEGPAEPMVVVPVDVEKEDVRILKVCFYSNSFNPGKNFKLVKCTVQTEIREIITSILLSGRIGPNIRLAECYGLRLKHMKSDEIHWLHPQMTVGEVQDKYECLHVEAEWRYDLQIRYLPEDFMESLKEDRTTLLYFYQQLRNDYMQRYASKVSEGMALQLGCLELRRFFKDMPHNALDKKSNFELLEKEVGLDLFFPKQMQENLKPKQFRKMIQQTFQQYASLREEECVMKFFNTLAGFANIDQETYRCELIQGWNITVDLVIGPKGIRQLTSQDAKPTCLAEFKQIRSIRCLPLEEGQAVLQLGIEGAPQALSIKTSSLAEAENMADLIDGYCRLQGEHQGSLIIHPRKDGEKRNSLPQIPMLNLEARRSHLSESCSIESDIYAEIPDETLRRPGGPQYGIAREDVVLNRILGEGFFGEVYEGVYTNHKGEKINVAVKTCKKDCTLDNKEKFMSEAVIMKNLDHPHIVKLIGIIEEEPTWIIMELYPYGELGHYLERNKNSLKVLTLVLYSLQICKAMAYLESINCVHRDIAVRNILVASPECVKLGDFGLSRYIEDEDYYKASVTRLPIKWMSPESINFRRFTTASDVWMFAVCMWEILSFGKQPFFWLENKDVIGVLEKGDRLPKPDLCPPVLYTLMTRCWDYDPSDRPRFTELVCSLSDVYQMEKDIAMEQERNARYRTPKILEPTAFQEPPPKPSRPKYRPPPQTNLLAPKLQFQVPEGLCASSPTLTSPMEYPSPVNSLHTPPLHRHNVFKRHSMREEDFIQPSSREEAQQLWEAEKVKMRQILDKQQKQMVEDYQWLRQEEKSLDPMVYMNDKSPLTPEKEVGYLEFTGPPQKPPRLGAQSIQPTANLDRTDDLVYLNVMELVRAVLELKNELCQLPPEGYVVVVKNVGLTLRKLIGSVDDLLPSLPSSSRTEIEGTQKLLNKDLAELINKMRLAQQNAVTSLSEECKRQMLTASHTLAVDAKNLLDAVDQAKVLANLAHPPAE
Sequence of Receptor-interacting serine/threonine-protein kinase 2 (Homo sapiens) (O43353 whole entry): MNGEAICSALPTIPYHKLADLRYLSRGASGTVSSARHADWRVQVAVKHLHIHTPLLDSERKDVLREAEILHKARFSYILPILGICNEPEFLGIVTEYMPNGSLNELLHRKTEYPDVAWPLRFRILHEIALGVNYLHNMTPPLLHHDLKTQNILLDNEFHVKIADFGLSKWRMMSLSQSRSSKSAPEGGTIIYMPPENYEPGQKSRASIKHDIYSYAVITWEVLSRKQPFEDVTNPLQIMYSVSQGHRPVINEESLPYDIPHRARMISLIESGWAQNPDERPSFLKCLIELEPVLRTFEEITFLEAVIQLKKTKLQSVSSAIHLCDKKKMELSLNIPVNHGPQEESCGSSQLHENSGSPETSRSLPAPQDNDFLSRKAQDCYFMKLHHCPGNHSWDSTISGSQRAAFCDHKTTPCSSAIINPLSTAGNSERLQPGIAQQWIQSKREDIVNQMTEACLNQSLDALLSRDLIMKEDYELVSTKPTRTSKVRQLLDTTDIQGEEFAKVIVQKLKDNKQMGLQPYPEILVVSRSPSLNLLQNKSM
Sequence of Calcium/calmodulin-dependent protein kinase type 1 (Homo sapiens) (Q14012 whole entry, looked up): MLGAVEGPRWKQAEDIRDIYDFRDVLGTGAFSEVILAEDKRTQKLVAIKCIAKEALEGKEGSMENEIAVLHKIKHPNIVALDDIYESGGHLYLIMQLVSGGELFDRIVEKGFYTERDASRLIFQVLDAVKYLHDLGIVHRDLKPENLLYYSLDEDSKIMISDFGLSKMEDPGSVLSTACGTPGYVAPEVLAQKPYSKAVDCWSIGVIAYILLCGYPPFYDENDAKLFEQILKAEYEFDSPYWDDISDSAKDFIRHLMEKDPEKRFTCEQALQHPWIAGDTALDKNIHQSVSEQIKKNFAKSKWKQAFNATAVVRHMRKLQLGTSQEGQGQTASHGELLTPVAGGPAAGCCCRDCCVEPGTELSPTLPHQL
Sequence of NT-3 growth factor receptor (Homo sapiens) (Q16288 32-839 limits assumed): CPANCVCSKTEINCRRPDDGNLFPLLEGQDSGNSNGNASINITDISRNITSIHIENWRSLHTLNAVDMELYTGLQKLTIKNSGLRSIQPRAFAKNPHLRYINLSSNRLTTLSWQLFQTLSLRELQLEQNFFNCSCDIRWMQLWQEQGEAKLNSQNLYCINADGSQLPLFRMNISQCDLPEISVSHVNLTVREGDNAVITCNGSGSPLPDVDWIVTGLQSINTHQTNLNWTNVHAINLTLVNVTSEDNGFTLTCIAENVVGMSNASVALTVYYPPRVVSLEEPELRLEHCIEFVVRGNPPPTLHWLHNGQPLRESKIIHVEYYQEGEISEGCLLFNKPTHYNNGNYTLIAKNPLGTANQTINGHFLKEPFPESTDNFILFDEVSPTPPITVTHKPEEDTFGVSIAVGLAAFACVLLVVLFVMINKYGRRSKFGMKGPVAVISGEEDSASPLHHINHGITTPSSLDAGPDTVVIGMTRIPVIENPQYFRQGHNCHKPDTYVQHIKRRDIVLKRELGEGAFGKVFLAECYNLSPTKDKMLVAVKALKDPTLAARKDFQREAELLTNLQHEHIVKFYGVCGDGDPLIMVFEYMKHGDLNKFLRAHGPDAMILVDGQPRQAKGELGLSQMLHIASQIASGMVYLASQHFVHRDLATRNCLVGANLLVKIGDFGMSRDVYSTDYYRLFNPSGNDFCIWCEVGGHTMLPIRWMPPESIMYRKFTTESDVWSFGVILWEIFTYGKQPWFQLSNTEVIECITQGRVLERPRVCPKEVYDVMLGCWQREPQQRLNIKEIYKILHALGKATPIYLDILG
Sequence of Calcium/calmodulin-dependent protein kinase type II subunit delta (Homo sapiens) (Q13557 whole entry): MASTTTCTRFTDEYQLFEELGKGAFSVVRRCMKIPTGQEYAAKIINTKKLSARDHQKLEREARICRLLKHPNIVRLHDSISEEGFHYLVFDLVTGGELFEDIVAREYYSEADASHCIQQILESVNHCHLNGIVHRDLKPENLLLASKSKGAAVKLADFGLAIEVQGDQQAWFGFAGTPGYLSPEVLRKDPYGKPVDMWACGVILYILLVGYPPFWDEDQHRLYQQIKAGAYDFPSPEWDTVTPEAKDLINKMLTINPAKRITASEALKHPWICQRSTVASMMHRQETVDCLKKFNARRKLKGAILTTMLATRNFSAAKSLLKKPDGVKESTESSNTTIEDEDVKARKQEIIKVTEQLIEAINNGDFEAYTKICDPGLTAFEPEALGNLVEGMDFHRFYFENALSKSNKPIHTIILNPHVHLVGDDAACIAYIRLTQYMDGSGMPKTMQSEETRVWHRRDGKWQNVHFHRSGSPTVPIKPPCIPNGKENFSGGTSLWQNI
Sequence of Death-associated protein kinase 2 (Homo sapiens) (Q9UIK4 whole entry, looked up): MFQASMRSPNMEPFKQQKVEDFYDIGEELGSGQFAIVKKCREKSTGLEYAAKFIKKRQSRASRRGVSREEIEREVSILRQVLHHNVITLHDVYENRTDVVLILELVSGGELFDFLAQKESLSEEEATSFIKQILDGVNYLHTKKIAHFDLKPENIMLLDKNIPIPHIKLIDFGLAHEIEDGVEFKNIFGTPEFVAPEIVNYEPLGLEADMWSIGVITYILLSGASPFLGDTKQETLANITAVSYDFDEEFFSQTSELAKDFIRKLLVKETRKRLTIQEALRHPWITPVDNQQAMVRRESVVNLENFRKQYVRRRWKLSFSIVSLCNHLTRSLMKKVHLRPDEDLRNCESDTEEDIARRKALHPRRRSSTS

inhibition [1]: 3% | fold change (FC) [2]: 0.14 | fold change (FC) [3]: 0.12
Compound: CNC(=O)c1ccccc1Oc1nc(Nc2cc(OC)c(OC)c(OC)c2)ncc1Br

inhibition [4]: 20% | inhibition [6]: 0% | fold change (FC) [7]: 0.08 | fold change (FC) [8]: 0.11
Compound: CC(C)[C@H](NC(=O)c1cc(-c2cnn3cc(-c4ccc(OCCN5CCCCC5)cc4)cnc23)cs1)C(F)(F)F
inhibition [5]: 6%

inhibition [9]: 39% | inhibition [10]: 0% | inhibition [11]: 5% | inhibition [12]: 3% | inhibition [13]: 0% | fold change (FC) [14]: 0.14
Compound: O=C(N[C@@H](C1CC1)C(F)(F)F)c1cc(-c2cnn3cc(-c4ccc(F)cc4)cnc23)cs1
